Assay results reported in patent publication US5391554A, “Dihydro- and tetrahydronaphthyridines” (Warner-Lambert Company, priority 1992, dated 1995).
“Also recorded” adds a separate entry of the source. Like-named read-outs stand apart in the source and are kept apart here.

How the values were obtained:
[1] = target: T1, Poly (ADP-ribose) synthetase (Bos taurus, UniProt P18493); test: Inhibition of Poly (ADP-ribose) synthetase (ADPRP inhibition); assay type: biochemical; settings: [3H]NAD, calf thymus DNA and histone, pH 8.0, 30° C., 15 minutes
T1 construct: Poly(ADP-ribose) synthetase from calf thymus; from tissue; host or cells: calf thymus
Method: Poly (ADP-ribose) synthetase is partially purified by the procedure of Shizuta, et al, up to and including the DNA-agarose column step. Active fractions are pooled and stored in small aliquots at -90° C. The specific activity was generally in the range of 25 U/rag protein, where one unit of enzyme activity is defined as the amount polymerizing 1 nmol of ADP-ribose moiety from [^3 H]NAD per minute at 30° C.
The enzyme assay is performed by placing the following in small glass tubes kept at 4° C.: 100 μL of buffer consisting of 0.5 M Tris-HCl pH 8.0, 50 mM MgCl2, and 5 mM dithiothreitol; 50 μL of 1 mM [adenine-2,8-^3 H]nicotinamide adenine dinucleotide at a concentration of 15 μCi/mL; 100 μL of calf thymus DNA (0.3 mg/mL in water); 50 μL of calf thymus histone (Sigma, Type IIA, 0.5 mg/mL); 50 μL of inhibitor or inhibitor solvent; 150 μL of enzyme (25 μg). The components are thoroughly mixed and warmed to 30° C. in a water bath. After 15 minutes the reaction is stopped by adding 2 mL of ice cold 15% trichloroacetic acid and the tubes are placed on ice for 15 minutes. The precipitate is collected on glass fiber filters and washed five times with ice-cold 15% trichloroacetic acid. The filters are dried and radioactivity determined in a liquid scintillation counter.

[2] = test system: Rif-1 sarcoma; test: In Vivo Assay for Radiosensitizing Activity (Rif-1 sarcoma); parameters: species or system mice; settings: IP 30 minutes before first x-ray dose, Days 6-10 and 13-17, x-Ray only T-C 18 days
Method: Mice were implanted with 1.9×10^5 Rif-1 sarcoma cells on Day 0. Treatment was on Days 6-10 and 13-17. On each treatment day the tumor-bearing limb received two doses of 2.5 Gy X-irradiation separated by 3 hours. Test compound was administered IP 30 minutes prior to the first x-ray dose on each treatment day. Effectiveness is measured by the T-C, the difference in days for the treated and control tumors, respectively, to reach 1000 mg.

[3] = test system: hypoxic tumor cells; settings: in vitro and in vivo, background, cited from earlier work
[4] = test system: central nervous system; settings: cited from earlier work
[5] = test system: repair of damage caused by ionizing radiation; settings: background; cited from earlier work

T1 sequence (P18493 whole entry): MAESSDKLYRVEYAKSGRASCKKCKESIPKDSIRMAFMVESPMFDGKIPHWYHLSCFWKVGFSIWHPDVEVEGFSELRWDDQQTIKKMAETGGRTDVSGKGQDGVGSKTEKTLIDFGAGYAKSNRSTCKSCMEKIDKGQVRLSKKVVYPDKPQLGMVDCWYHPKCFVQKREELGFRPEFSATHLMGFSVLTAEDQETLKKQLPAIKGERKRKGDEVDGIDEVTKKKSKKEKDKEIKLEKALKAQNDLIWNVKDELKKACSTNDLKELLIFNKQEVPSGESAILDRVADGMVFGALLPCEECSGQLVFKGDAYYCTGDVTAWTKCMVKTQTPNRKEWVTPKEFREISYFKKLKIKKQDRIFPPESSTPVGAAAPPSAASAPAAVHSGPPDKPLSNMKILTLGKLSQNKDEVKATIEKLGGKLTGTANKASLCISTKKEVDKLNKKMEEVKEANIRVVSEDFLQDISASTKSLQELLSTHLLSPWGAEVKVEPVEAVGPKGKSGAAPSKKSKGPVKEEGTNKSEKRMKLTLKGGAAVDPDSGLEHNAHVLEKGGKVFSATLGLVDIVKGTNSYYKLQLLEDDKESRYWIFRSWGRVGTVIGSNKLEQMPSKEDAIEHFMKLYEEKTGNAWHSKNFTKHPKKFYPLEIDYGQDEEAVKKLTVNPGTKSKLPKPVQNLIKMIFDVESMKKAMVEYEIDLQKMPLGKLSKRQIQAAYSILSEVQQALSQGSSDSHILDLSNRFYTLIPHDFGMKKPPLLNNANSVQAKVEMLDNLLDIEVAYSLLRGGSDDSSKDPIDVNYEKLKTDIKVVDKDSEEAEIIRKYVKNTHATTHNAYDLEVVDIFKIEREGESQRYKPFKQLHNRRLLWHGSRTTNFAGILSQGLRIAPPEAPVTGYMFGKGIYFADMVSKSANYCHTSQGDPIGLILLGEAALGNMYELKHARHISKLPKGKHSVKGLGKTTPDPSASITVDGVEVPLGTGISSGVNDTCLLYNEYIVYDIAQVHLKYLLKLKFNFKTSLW

Structure (SMILES)	IC50 [1] [nM]	other results
O=c1[nH]cc(Br)c2ncccc12 [Compound 5, 8Bromo-1,6-naphthyridine-5(6H) -one]	1000 to 10000	–
O=C1NCCc2ncccc21 [Compound 13, 7,8-Dihydro-1,6-naphthyridin-5(6H)-one]	2500	T-C (days for treated minus control tumors to reach 1000 mg) ([2]; 500 mg/kg/inj + x-Ray (2.5 Gy × 2)): 26 days
C[n+]1cccc2c(=O)[nH]ccc21 [Compound 7, 5,6-Dihydro-1-methyl-5-oxo-1,6-naphthyridin-1-ium monoiodide]	10000 to 100000	–
CN1CCCc2c1cc[nH]c2=O [Compound 8, 1,2,3,4-Tetrahydro-1-methyl-1,6-naphthyridin-5 (6H) one]	510	T-C (days for treated minus control tumors to reach 1000 mg) ([2]; 340 mg/kg/inj + x-Ray (2.5 Gy × 2)): 38 days
Cc1cccc2c1CCNC2=O [Reference Compound]	110	–
COCC(O)Cn1ccnc1[N+](=O)[O-] (stereo not drawn) [misonidazole, α-(methoxymethyl)-2-nitro-1H-imidazole-1-ethanol]	–	radiosensitizing activity [3]: of value as a radiosensitizer for hypoxic tumor cells; also recorded: effective as radiosensitizers for hypoxic cells in vivo; CNS side effects ([4]; administered to mice): peripheral neuropathy effects and convulsions in mice
NC(=O)c1cccc(N)c1 [3-aminobenzamide]	–	sensitization to lethal effects of radiation / inhibition of repair [5]: inhibit this postirradiation repair process; also recorded: repair of damage caused by exposure to DNA-damaging agents such as ionizing radiation, was inhibited
O=c1[nH]ccc2ncccc12 [Compound 3, 1,6-Naphthyridine-5(6H)-one]	1000 to 10000	–
CNC=O [N-methylformamide]	–	sensitization to lethal effects of radiation / inhibition of repair [5]: sensitize tumors to the lethal effects of radiation
Cc1cc2ncccc2c(=O)[nH]1 [Compound 4, 7-Methyl-1,6-naphthyridine-5 (6H) -one]	1200	–
O=c1[nH]ccc2c1ccc[n+]2[O-] [Compound 9, 1,6-Naphthyridine-5(6H)-one, 1-oxide]	10000 to 100000	–
O=c1[nH]ccc2c1CCCN2 [Compound 6, 1,2,3,4-Tetrahydro-1,6-naphthyridine-5(6H)-one]	1000 to 10000	–
Cc1ncc([N+](=O)[O-])n1CCO [metronidazole, 2-methyl-5-nitro-1H-imidazole-1-ethanol]	–	radiosensitizing activity [3]: effective as radiosensitizers for hypoxic cells in vivo; radiosensitizing activity ([3]; listed as Metronidazole): active both in vitro and in vivo as a radiosensitizer; CNS side effects ([4]; mouse, in vivo): peripheral neuropathy effects and convulsions in mice
